For test [1], the target named is T1, recombinant mouse NAPE-PLD (Mus musculus, UniProt Q8BH82).
T1 construct: hexahistidine (His6) (C); made in house; host or cells: E. coli
T1 sequence (Q8BH82 1-396): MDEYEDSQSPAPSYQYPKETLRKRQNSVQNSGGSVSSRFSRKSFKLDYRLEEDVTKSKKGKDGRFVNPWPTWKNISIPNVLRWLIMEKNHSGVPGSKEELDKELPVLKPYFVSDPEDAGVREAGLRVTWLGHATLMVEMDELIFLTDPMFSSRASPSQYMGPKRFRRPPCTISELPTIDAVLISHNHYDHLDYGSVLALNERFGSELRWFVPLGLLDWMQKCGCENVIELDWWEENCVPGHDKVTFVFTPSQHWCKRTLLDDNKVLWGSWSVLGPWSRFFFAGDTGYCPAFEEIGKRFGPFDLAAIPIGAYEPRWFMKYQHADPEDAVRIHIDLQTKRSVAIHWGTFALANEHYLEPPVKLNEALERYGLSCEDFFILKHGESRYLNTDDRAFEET
Briefly: LC/MS NAPE-PLD assay with N-oleoyl-phosphatidylethanolamine (NOPE) as substrate. It is filed as biochemical. The conditions noted are these: NOPE 90 min (FIG. 19A). Here is the method: For LC/MS assays, N-oleoyl-PE was added as substrate after […] pre-incubation with compound VU534, VU533, VU233 or vehicle. 90 min after N-oleoyl-PE was added, the reaction was quenched by adding 3 volumes of ice-cold methanol containing [^2H4]OEA and [^2H4]N-palmitoyl-PE and then 6 volumes of ice-cold chloroform.33 The lower phase was dried under nitrogen gas and dissolved in 100 μL mobile phase A. High performance liquid chromatography was performed using a 2.1 mm C18 guard column (Phenomenex AJ0-8782), and a rapid gradient ramp. Mobile phase A was 5:1:4 (v/v/v) isopropanol: methanol: water, with 0.2% v/v formic acid, 0.66 mM ammonium formate and 3 μM phosphoric acid included as additives. Mobile phase B was 0.2% (v/v) formic acid in isopropanol. Initial column conditions were 5% mobile phase B, followed by gradient ramp to 95% B over 0.5 min, held at 95% B for 2 min, the returned to initial conditions (5% B) over 1 min. Flow rate throughout was 100 μL/min. Injection volume was 2 μL. The sample injector needle was washed before each injection using a strong wash of methanol, and a weak wash of 1:1:1:1 (v/v/v/V) isopropanol: methanol: acetonitrile: water, with 0.2% formic acid, 0.3 mM ammonium formate, and 0.37 mM phosphoric acid included as additives. Multiple reaction monitoring for the following ions were monitored: OEA [M+H]^+: m/z 326.3→m/z 62.1; [^2H4]OEA [M+H]^+: m/z 330.3→m/z 66.1; N-oleoyl-PE [M+NH4]^+: m/z 693.5→m/z 308.3 (quantifier), m/z 693.5→m/z 271.2 (qualifier); [^2H4]N-palmitoyl-PE [M+NH4]^+: m/z 1003.8→m/z 286.3 (quantifier), m/z 1003.8→m/z 603.5 (qualifier). […]
To confirm the results of the fluorescence-based assays, an orthogonal biochemical Nape-pld assay based on LC/MS was employed. Recombinant mouse NAPE-PLD was pre-treated with VU534, VU533, VU233 or vehicle for 30 min, then N-oleoyl-phosphatidylethanolamine (NOPE) was added for 90 min, and the resulting levels of OEA and NOPE was measured by LC/MS. […]

The target of test [2] is T1, recombinant mouse NAPE-PLD. Briefly: In vitro competition assay (LEI-401, VU233, VU534) on recombinant mouse Nape-pld. It is filed as biochemical. Here is the method: (§1) A similar in vitro fluorescence Nape-pld activity assay was used for LEI-401 and VU233 competition assays except that this assay was performed using black-walled clear-bottom 96-well plates with 3.5 μM PED-A1 and no N-palmitoyl-dioleoyl-PE used as substrate and read in a BioTek Synergy H1 plate reader with the slope of the fluorescence signal from 0-4 min (linear phase) used as the assay readout. LEI-401, VU233, and VU534 were incubated for 1 h prior to addition of PED-A1. The Michaelis-Menten study used this same assay except with graded concentration of flame-NAPE.

Test [3] has as its target T1, recombinant mouse NAPE-PLD. The experiment in a line: Michaelis-Menten analysis with flame-NAPE as substrate. It is filed as biochemical. The protocol:
To further understand this effect, a 50-nanosecond molecular dynamic (MD) simulation was performed using AMBER17. The PDQ9:VU534 complex was prepped for simulation using CHARMM-GUI and ff14SB, TIP3P, GAFF2 force fields were employed for proteins, […] molecules, respectively. This simulation predicted that VU534 binding to the interface pocket allosterically alters the catalytic site conformation including reorienting the zinc-hydroxide-zinc complex parallel to the substrate (FIG. 11), consistent with the measured increased kcat.
as §1
To confirm the results of the fluorescence-based assays, an orthogonal biochemical Nape-pld assay based on LC/MS was employed. Recombinant mouse NAPE-PLD was pre-treated with VU534, VU533, VU233 or vehicle for 30 min, then N-oleoyl-phosphatidylethanolamine (NOPE) was added for 90 min, and the resulting levels of OEA and NOPE was measured by LC/MS. […] To further characterize the effect of VU534 on NAPE-PLD activity, a Michaelis-Menten analysis was performed using recombinant mouse NAPE-PLD and graded concentrations of flame-NAPE, a selective NAPE-PLD fluorogenic substrate resistant to competing esterase activity.

For test [4], the target named is T2, NAPE-PLD activity in primary BMDMϕ (Mus musculus, UniProt Q8BH82).
T2 construct: endogenous in cells; host or cells: primary bone-marrow-derived macrophages (C57BL6/j mice)
T2 sequence (Q8BH82 1-396): T1 sequence (Q8BH82 1-396)
The experiment in a line: NAPE-PLD activity in primary bone marrow derived macrophages. It is filed as cell-based. As to conditions: VU534 at 10 μM (FIG. 5).

Molecules are shown by their SMILES. Entries after “also recorded” stand apart in the source; their conditions may differ.

As for `O=C(Nc1nc2ccccc2s1)C1CCN(S(=O)(=O)c2ccc(F)c(Cl)c2)CC1` [VU233], the “effect on OEA/NOPE ratio” value in test [1] is given as “no significant effect”. The “effect on enzyme activation by 5 μM VU534” value in test [2] (graded concentrations with 5 μM VU534 (FIG. 19C)) is given as “suppress the enzyme activation of 5 μM VU534 in a concentration-dependent manner”.

As to `Cc1ccc(C)c2sc(NC(=O)C3CCN(S(=O)(=O)c4ccc(F)cc4)CC3)nc12` [VU533], the “effect on OEA/NOPE ratio” value in test [1] is recorded as “significantly increased the OEA/NOPE ratio”.

With `Cc1cc(C)c2sc(NC(=O)C3CCN(S(=O)(=O)c4ccc(F)cc4)CC3)nc2c1` [VU534, N-(5,7-Dimethylbenzo[d]thiazol-2-yl)-1-((4-fluorophenyl)sulfonyl)piperidine-4-carboxamide], the “effect on catalytic rate (kcat) of NAPE-PLD” value in test [3] (Example 9, FIG. 10) was “enhanced kcat (turnover number) without reducing the Michaelis-Menten constant, Km; also recorded: increases the catalytic rate”. In test [3] (with VU534 (vehicle 12.4 μM), flame-NAPE), the “K1/2 of NAPE-PLD” value was 5.9 µM. The “maximal velocity of NAPE-PLD” value in test [3] (with VU534 (vehicle 227 RFU/min), flame-NAPE) stood at 421 RFU/min. Also, the “effect on OEA/NOPE ratio” value in test [1] is reported as “significantly increased the OEA/NOPE ratio”. In addition, the “increase of Nape-pld activity” value in test [2] (5 μM, in the absence of LEI-401) amounted to 1.5 fold. The “effect on NAPE-PLD activity in primary BMDM” value in test [4] is “increases NAPE-PLD activity”.
